For test [1], the target named is T1, SENP1 (Homo sapiens, UniProt Q9P0U3).
T1 sequence (Q9P0U3 1-644): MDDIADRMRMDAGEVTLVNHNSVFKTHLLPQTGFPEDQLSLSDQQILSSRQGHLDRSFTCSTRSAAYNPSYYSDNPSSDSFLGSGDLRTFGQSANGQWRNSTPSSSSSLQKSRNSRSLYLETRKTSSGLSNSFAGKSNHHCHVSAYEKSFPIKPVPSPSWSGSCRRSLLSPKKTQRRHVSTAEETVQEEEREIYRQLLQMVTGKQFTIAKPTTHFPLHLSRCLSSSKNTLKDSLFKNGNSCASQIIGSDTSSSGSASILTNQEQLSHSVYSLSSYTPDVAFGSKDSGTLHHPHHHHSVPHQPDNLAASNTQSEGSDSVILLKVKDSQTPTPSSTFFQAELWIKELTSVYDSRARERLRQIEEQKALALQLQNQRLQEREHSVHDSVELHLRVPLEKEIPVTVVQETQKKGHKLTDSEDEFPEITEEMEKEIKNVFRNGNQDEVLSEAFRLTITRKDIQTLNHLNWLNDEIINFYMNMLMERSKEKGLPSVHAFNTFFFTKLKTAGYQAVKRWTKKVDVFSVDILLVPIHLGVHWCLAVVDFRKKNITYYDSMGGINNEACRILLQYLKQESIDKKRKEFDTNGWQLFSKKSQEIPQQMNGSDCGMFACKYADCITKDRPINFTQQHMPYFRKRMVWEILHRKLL
Nature of the test: In vitro deSUMOylation assay (SUMOylated His-JAK2 + recombinant GST-SENP1). It is filed as biochemical. Conditions: read-out: SENP1 inhibition in vitro IC50. On the procedure:
(A) Collection of Momordin Ic (Mc) natural compound analogues. […] Cell proliferation was determined by the sulforhodamine B (SRB) assay. […] IGROV1 CR cells were incubated with Mc at indicated concentrations for 48 h and then harvested for Western blot for indicated proteins. […] IGROV1 CR cells were incubated with UA and then treated as in C. […] Intensity of SUMOylated JAK2 was measured by Quantity One software. […] Recombinant His‐JAK2 was SUMOylated by in vitro SUMOylation assay, and then SUMOylated JAK2 proteins were incubated with or without recombinant GST‐SENP1 together with Mc for 3 h. […] In vitro assay was performed as in (F). […]

Test [2] concerns the target T1, SENP1. Nature of the test: SENP1 activity in cells (SUMOylated JAK2, Western blot quantification). The format is cell-based. The arrangement: endogenous in cells; host or cells: IGROV1 CR cells. Conditions: IGROV1 CR cells, 48 h. On the procedure:
(A) Collection of Momordin Ic (Mc) natural compound analogues. […] Cell proliferation was determined by the sulforhodamine B (SRB) assay. […] IGROV1 CR cells were incubated with Mc at indicated concentrations for 48 h and then harvested for Western blot for indicated proteins. […] IGROV1 CR cells were incubated with UA and then treated as in C. […] Intensity of SUMOylated JAK2 was measured by Quantity One software. […] Recombinant His‐JAK2 was SUMOylated by in vitro SUMOylation assay, and then SUMOylated JAK2 proteins were incubated with or without recombinant GST‐SENP1 together with Mc for 3 h. […] In vitro assay was performed as in (F).
(A) Synthesis of UA derivatives. Reagents and conditions: (i) Ac2O, DMAP, Pyridine, r.t.; (ii) Oxalyl chloride, CH2Cl2, r.t., overnight; (iii) amines, TEA, r.t., 0.5–4 h; (iv) NaOH a.q., MeOH/THF, r.t.; (v) amines, MeOH, reflux; (vi) K2CO3, DMF, 60°C. The detail of synthesis was included in supplemental materials. […] (C) IGROV1 CR cells treated with indicated UAMMC9 for 48 h. Cells were then harvested and lysates were resolved on sodium dodecyl sulphate‐polyacrylamide gel electrophoresis, followed by immunoblotting for indicated proteins. (D) Cellular thermal shift assay to examine the interaction of UAMMC9 with SENP1. IGROV1 CR cells were incubated with DMSO or UAMMC9 for 4 h before treatment as in Figure 2A. (E) In vitro thermal shift assay to analyze the interactions of UAMMC9 with purified GST‐SENP1(C603A). Stability of SENP1(C603A) was analyzed by using Western blot against SENP1 antibody. […] Surface of hydrophobic amino acid residues in catalytic cleft was shown in yellow and that of hydrophilic amino acid residues was shown in magenta. Key amino acid residues were highlighted. […] The pictures were generated by Chimera.

The mark [3] stands for this setting: recombinant GST-SENP1, SUMOylated His-JAK2, 3 h.
Where [4] appears, read: intensity of SUMOylated JAK2, read-out: SENP1 inhibition in cells IC50.

SMILES strings stand for the structures. “And” between values parts separate entries of the source, which are not always exact repeats. Identical values can stand only once.

For 3 compounds, IC50 results are on record in publication PMC8710297, “Identification of potent SENP1 inhibitors that inactivate SENP1/JAK2/STAT signaling pathway and overcome platinum drug resistance in ovarian cancer” (Clinical and Translational Medicine, 2021).

For the compound `CC1(C)CC[C@]2(C(=O)O)CC[C@]3(C)C(=CC[C@@H]4[C@@]5(C)CC[C@H](O[C@@H]6O[C@H](C(=O)O)[C@@H](O)[C@H](O[C@@H]7OC[C@@H](O)[C@H](O)[C@H]7O)[C@H]6O)C(C)(C)[C@@H]5CC[C@]43C)[C@@H]2C1` [Mc, Momordin Ιc], the IC50 on SENP1 [1] (setting [3]) amounted to 19900 nM; at SENP1 [2] (setting [4]) it was 31800 nM.

For the compound `C[C@H]1[C@H](C)CC[C@]2(C(=O)O)CC[C@]3(C)C(=CC[C@@H]4[C@@]5(C)CC[C@H](O)C(C)(C)[C@@H]5CC[C@]43C)[C@H]12` [UA, ursolic acid, reference compound], the values for the IC50 on SENP1 [1] (setting [3]) and at SENP1 [2] (setting [4]) were 6.4 nM and 240 nM, respectively.

Regarding `C[C@H]1[C@H](C)CC[C@]2(C(=O)NCC(=O)N(C)CCO)CC[C@]3(C)C(=CC[C@@H]4[C@@]5(C)CC[C@H](O)C(C)(C)[C@@H]5CC[C@]43C)[C@H]12` [UAMMC9], the half-inhibitory concentration (IC50) on SENP1 [1] (recombinant SENP1, SUMOylated JAK2) is 196 nM; on SENP1 [2] (SUMOylated JAK2, read-out: SENP1 activity in cells IC50), 150 nM and 151 nM.
